Experimental data as given in PMC6835763, “Influence of Short Cationic Lipopeptides with Fatty Acids of Different Chain Lengths on Bacterial Biofilms Formed on Polystyrene and Hydrogel Surfaces” (Pharmaceutics, 2019).
Converted amounts (≈) assume the structure as drawn. Where a SMILES comes first, the peptide text is derived from it. Bridges are numbered along the chain shown (N, C = ends). Roman numbers before positions name the chains, in order. The star is where a group is joined. Palmitoyl = CCCCCCCCCCCCCCCC(=O)*; Lauroyl = CCCCCCCCCCCC(=O)*

Assays:
PM biofilm = conditions: cited from earlier work; for concentration eradicating the PM biofilm: mature PM biofilms
Text: (§1) They were ineffective against PM, which was difficult to eradicate with peptides (and antibiotics) in previously performed studies. PM can cause infections of the urinary tract, skin, subcutaneous tissue, and wounds. PM is known as a biofilm former, and an evident increase of PM resistance to broad-spectrum fluoroquinolones and cephalosporins has been observed. In the previous study, mature PM b ...

[1] = RP-HPLC retention to evaluate the hydrophobicity of lipopeptides; type: physicochemical; conditions: chromatographic, Luna C18(2) 3.0 × 100 mm, 5.0 µm, linear 20–80% acetonitrile in water over 10 min, 0.1% formic acid, 0.5 mL/min, UV 214 nm, used to evaluate hydrophobicity
Procedure: The crude peptide was lyophilized and subsequently purified by RP-HPLC. The purifications were carried out on a Phenomenex Gemini-NX C18 column (21.20 × 100 mm, 5.0 µm particle size, and 110 Å pore size). Acetonitrile and water, both containing 0.1% of TFA, were used as the mobile phase. UV detection at 214 nm was used. The crude peptides were eluted with a linear 20–80% acetonitrile gradient in deionized water over 60 min at a flow rate of 10.0 mL/min. The purity and identity of the peptides were confirmed with LC-MS analysis. A Waters Alliance e2695 RP-HPLC system (Waters, Milford, MA, USA) with Waters 2998 PDA (Waters, Milford, MA, USA) and Acquity QDA detectors (Empower®3 software, Database Version 7.21.00.00) was used. All analyses were carried out on a Phenomenex, Luna C18(2) column (3.0 × 100 mm, 5.0 µm particle size, 100 Å pore size). The samples were analyzed with a linear 20–80% acetonitrile gradient in deionized water over 10 min at a flow rate of 0.5 mL/min with UV detection at 214 nm. Both eluents contained 0.1% (v/v) of formic acid. The pure fractions (>95%, by HPLC analysis) were collected and lyophilized. The retention time and percentage of ACN (%) at which each peptide was eluted are included in Table 1 to evaluate the hydrophobicity of lipopeptides. The identity of all compounds was confirmed using mass spectrometry (Waters Alliance e2695 system with Acquity QDA detector, Waters, Milford, MA, USA) with electrospray ionization in positive ion mode (ESI-MS). In this mode, a proton is attached to basic moieties (amine groups, guanidine groups). The theoretical mass of the peptide was calculated and then expected ions (m/z—mass to charge ratio) were compared to measured m/z. The results are presented in Table 1, and mass spectra are presented in the Supplementary Materials.

[2] = system: Enterococcus faecalis ATCC 29212; type: cell-based; conditions: ATCC 29212, 18 h
Procedure: (§2) The reference strains of gram-positive and gram-negative bacteria (Table 2) were obtained from the Polish Collection of Microorganisms (Polish Academy of Science, Wroclaw, Poland). The microorganisms were cultured in Muller Hinton Broth II (MHB II, Biocorp, Warsaw, Poland), overnight, at 37 °C. The MICs of synthetic lipopeptides and conventional antimicrobials were determined using the broth microdilution method according to the Clinical and Laboratory Standard Institute (CLSI) guidelines on reference strains. […] The PS were incubated under aerobic conditions at 37 °C for 18 h. The MIC (μg/mL) was assumed as the lowest concentration of the compound that inhibited the growth of the microorganisms. All experiments were performed in triplicate and included the growth and sterility controls.

[3] = system: Escherichia coli ATCC 25922; type: cell-based; conditions: ATCC 25922, 18 h
Procedure: as §2

[4] = system: Pseudomonas aeruginosa ATCC 9027; type: cell-based; conditions: ATCC 9027, 18 h
Procedure: as §2

[5] = system: Staphylococcus aureus ATCC 25923; type: cell-based; conditions: ATCC 25923, 18 h
Procedure: as §2

[6] = system: Staphylococcus epidermidis ATCC 14990; type: cell-based; conditions: ATCC 14990, 18 h
Procedure: as §2

[7] = system: Enterococcus faecalis ATCC 29212; experiment: MBFIC assay (biofilm formation inhibition, resazurin); type: cell-based; conditions: ca. 5 × 10^8 CFU/mL in MHB II, 37 °C, 18 h, visual, triplicate; for MBFIC E. faecalis, CL: contact lenses (CL, Etafilcon A hydrogel) in 24-well plates; for MBFIC E. faecalis, PS: polystyrene plates (PS), 96-well
Procedure: (§3) To determine the inhibitory effect of antimicrobials on the formation of biofilm on hydrophobic surfaces, the bacterial suspensions of strains (initial inoculum of ca. 5 × 10^8 CFU/mL in MHB II medium supplemented with antimicrobials) were cultured on 96-well PS at 37 °C for 18 h under aerobic conditions. After incubation, the suspensions were aspirated, and the wells were rinsed three times with sterile phosphate buffer PBS (AppliChem, Darmstadt, Germany) in order to remove the planktonic cells. Resazurin (final concentration per sample = 0.005%) was applied as a cell viability reagent for reading the results. In contact with the living cells, the dye is metabolized by bacterial dehydrogenases, resulting in a reduction of blue resazurin to pink resorufin. All assays were performed in triplicate and included the growth controls (positive controls: bacterial suspensions without antimicrobials) and the sterility controls (negative controls: a sterile MBH medium). After 1h of incubation, a visual evaluation of results was made. […] In a preliminary study, it was established that the application of lipopeptides at a concentration found active from visual evaluation caused the reduction of bacterial metabolism to approximately 10% (or less) of the positive control once the results were evaluated with a spectrophotometer. After 1 h of incubation with the dye, absorbance was measured at 570 and 600 nm using a microplate reader (Thermo Fisher Scientific, Waltham, MA, USA). The metabolic activity of bacteria in the samples was measured according to the formula presented in the previous paper.
(§4) The MBFIC assay with CL was applied in order to access the influence of lipopeptides on the biofilm formation on hydrogel surfaces. The entire sterile CL (1-Day Acuvue Moist, containing Etafilcon A., purchased from Johnson & Johnson (Vision Care, Jacksonsville, FL, USA), were placed in 24-well PS (Orange Scientific, Braine-l’ Alleud, Belgium) and the MBFICs were determined according to the above protocol.

[8] = system: Escherichia coli ATCC 25922; experiment: as above; type: cell-based; conditions: ca. 5 × 10^8 CFU/mL in MHB II, 37 °C, 18 h, visual, triplicate; for MBFIC E. coli, CL: contact lenses (CL, Etafilcon A hydrogel) in 24-well plates; for MBFIC E. coli, PS: polystyrene plates (PS), 96-well
Procedure: as §3, §4

[9] = system: Proteus mirabilis PCM 543; experiment: as above; type: cell-based; conditions: ca. 5 × 10^8 CFU/mL in MHB II, 37 °C, 18 h, visual, triplicate; for MBFIC P. mirabilis, CL: contact lenses (CL, Etafilcon A hydrogel) in 24-well plates; for MBFIC P. mirabilis, PS: polystyrene plates (PS), 96-well
Procedure: as §3, §4

[10] = system: Pseudomonas aeruginosa ATCC 9027; experiment: as above; type: cell-based; conditions: ca. 5 × 10^8 CFU/mL in MHB II, 37 °C, 18 h, visual, triplicate; for MBFIC P. aeruginosa, CL: contact lenses (CL, Etafilcon A hydrogel) in 24-well plates; for MBFIC P. aeruginosa, PS: polystyrene plates (PS), 96-well
Procedure: as §3, §4

[11] = system: Staphylococcus aureus ATCC 25923; experiment: as above; type: cell-based; conditions: ca. 5 × 10^8 CFU/mL in MHB II, 37 °C, 18 h, resazurin, visual, triplicate; for MBFIC S. aureus, CL: contact lenses (CL, Etafilcon A hydrogel) in 24-well plates; for MBFIC S. aureus, PS: polystyrene plates (PS), 96-well
Procedure: as §3, §4

[12] = system: Staphylococcus epidermidis ATCC 14990; experiment: as above; type: cell-based; conditions: ca. 5 × 10^8 CFU/mL in MHB II, 37 °C, 18 h, resazurin, visual, triplicate; for MBFIC S. epidermidis, CL: contact lenses (CL, Etafilcon A hydrogel) in 24-well plates; for MBFIC S. epidermidis, PS: polystyrene plates (PS), 96-well
Procedure: as §3, §4

[13] = system: Enterococcus faecalis ATCC 29212; type: cell-based; conditions: ATCC 29212, 24 h
Procedure: (§5) The biofilms of bacteria associated with the biofilm-related infections were cultured on 96-well flat bottom PS and on CL placed in 24-well plates. The bacteria at initial inoculums of 5 × 10^8 CFU/mL in MHB II were added to the plates and incubated at 37 °C under aerobic conditions. After 24 h of incubation, all cultures were rinsed three times with PBS and fresh medium was added. Subsequently, the obtained biofilm cultures were exposed to solutions of antimicrobials applied at graded concentrations ranging from 1 to 512 μg/mL for 24 h at 37 °C. The anti-biofilm activity of antimicrobials was visualized by resazurin (final concentration per sample = 0.005%) in the same way as in the MBFIC assay. All experiments were performed in triplicate and included growth controls (positive control: bacterial suspension without antimicrobials) and sterility controls (negative controls: sterile MBH II medium).

[14] = system: Escherichia coli ATCC 25922; type: cell-based; conditions: ATCC 25922, 24 h
Procedure: as §5

[15] = system: Proteus mirabilis PCM 543; type: cell-based; conditions: PCM 543, 24 h
Procedure: as §5

[16] = system: Pseudomonas aeruginosa ATCC 9027; type: cell-based; conditions: ATCC 9027, 24 h
Procedure: as §5

[17] = system: Staphylococcus aureus ATCC 25923; type: cell-based; conditions: ATCC 25923, 24 h
Procedure: as §5

[18] = system: Staphylococcus epidermidis ATCC 14990; type: cell-based; conditions: ATCC 14990, 24 h
Procedure: as §5

EC biofilm = conditions: cited from earlier work
Text: as §1

PA biofilm = conditions: cited from earlier work
Text: as §1

SA biofilms = system: SA biofilms; parameters: method as in PMID 24779193; conditions: cited from earlier work

Compound: omiganan
- susceptibility of mature PM biofilms (PM biofilm): resistant

Compound: polymyxin B
- concentration eradicating the PM biofilm (PM biofilm): 512 µg/mL

Compound: citropin 1.1
- susceptibility of mature PM biofilms (PM biofilm): resistant

Compound: pexiganan
- susceptibility of mature PM biofilms (PM biofilm): resistant

Compound: CCCCCCCCCCCCCCCC(=O)N[C@@H](CCCCN)C(=O)N[C@@H](CCCCN)C(=O)N[C@@H](CSSC[C@H](NC(=O)[C@H](CCCCN)NC(=O)[C@H](CCCCN)NC(=O)CCCCCCCCCCCCCCC)C(N)=O)C(N)=O [Lipopeptide 6, C16-KKC-NH2] (I: Palmitoyl-Lys-Lys-Cys-NH2 / II: Palmitoyl-Lys-Lys-Cys-NH2; disulfide I:3-II:3)
- % ACN at which the peptide was eluted [1]: 47.8%
- tR' (adjusted retention time) [1]: 4.63 min
- MIC E. faecalis [2]: 256 µg/mL (≈ 208 µM)
- MIC E. coli [3]: 256 µg/mL (≈ 208 µM)
- MIC P. aeruginosa [4]: 256 µg/mL (≈ 208 µM)
- MIC S. aureus [5]: 256 µg/mL (≈ 208 µM)
- MIC S. epidermidis [6]: 128 µg/mL (≈ 104 µM)
- MBFIC E. faecalis, CL [7]: 256/256 μg/mL
- MBFIC E. faecalis, PS [7]: 256/256 μg/mL
- MBFIC E. coli, CL [8]: 128 µg/mL
- MBFIC E. coli, PS [8]: 512 µg/mL
- MBFIC P. mirabilis, CL [9]: >512/512 μg/mL
- MBFIC P. mirabilis, PS [9]: >512/512 μg/mL
- MBFIC P. aeruginosa, CL [10]: 256 µg/mL
- MBFIC P. aeruginosa, PS [10]: 512 µg/mL
- MBFIC S. aureus, CL [11]: 64 µg/mL
- MBFIC S. aureus, PS [11]: 256 µg/mL
- MBFIC S. epidermidis, CL [12]: 64 µg/mL
- MBFIC S. epidermidis, PS [12]: 256 µg/mL
- MBEC E. faecalis, CL [13]: 512/512 μg/mL
- MBEC E. coli, CL [14]: 512/512 μg/mL
- MBEC P. mirabilis, CL [15]: >512/>512 μg/mL
- MBEC P. aeruginosa, CL [16]: >512/>512 μg/mL
- MBEC S. aureus, CL [17]: 512 µg/mL
- MBEC S. epidermidis, CL [18]: 256/256 μg/mL

Compound: C16-RR-NH2 [Lipopeptide C16-RR-NH2]
- susceptibility of mature PM biofilms (PM biofilm): resistant

Compound: CCCCCCCCCCCC(=O)N[C@@H](CCCCN)C(=O)N[C@@H](CCCNC(=N)N)C(N)=O [Lipopeptide 2, C12-KR-NH2] (Lauroyl-Lys-Arg-NH2)
- % ACN at which the peptide was eluted [1]: 33.9%
- tR' (adjusted retention time) [1]: 2.32 min
- MIC E. faecalis [2]: 64 µg/mL (≈ 132 µM)
- MIC E. coli [3]: 512 µg/mL (≈ 1060 µM)
- MIC P. aeruginosa [4]: 512 µg/mL (≈ 1060 µM)
- MIC S. aureus [5]: 64 µg/mL (≈ 132 µM)
- MIC S. epidermidis [6]: 32 µg/mL (≈ 66.2 µM)
- MBFIC E. faecalis, CL [7]: 512/512 μg/mL
- MBFIC E. faecalis, PS [7]: 512/512 μg/mL
- MBFIC E. coli, CL [8]: 128 µg/mL
- MBFIC E. coli, PS [8]: 512 µg/mL
- MBFIC P. mirabilis, CL [9]: >512/512 μg/mL
- MBFIC P. mirabilis, PS [9]: >512/512 μg/mL
- MBFIC P. aeruginosa, CL [10]: 512/512 μg/mL
- MBFIC P. aeruginosa, PS [10]: 512/512 μg/mL
- MBFIC S. aureus, CL [11]: 128 µg/mL
- MBFIC S. aureus, PS [11]: 64 µg/mL
- MBFIC S. epidermidis, CL [12]: 32 µg/mL
- MBFIC S. epidermidis, PS [12]: 16 µg/mL
- MBEC E. faecalis, CL [13]: 128 µg/mL
- MBEC E. coli, CL [14]: 512 µg/mL
- MBEC P. mirabilis, CL [15]: >512/>512 μg/mL
- MBEC P. aeruginosa, CL [16]: >512/>512 μg/mL
- MBEC S. aureus, CL [17]: > 512 µg/mL
- MBEC S. epidermidis, CL [18]: 256 µg/mL

Compound: C16-KK-NH2 [Lipopeptide C16-KK-NH2]
- concentration eradicating the PM biofilm (PM biofilm): 512 µg/mL

Compound: O=C(N[C@H](CO)[C@H](O)c1ccc([N+](=O)[O-])cc1)C(Cl)Cl [chloramphenicol]
- activity against EC biofilms (EC biofilm): rather weak activity
- activity against PA biofilm (PA biofilm): weak antibiofilm agents
- susceptibility of SA biofilms (SA biofilms): resistant
